Entries after “also recorded” stand apart in the source; their conditions may differ.

This note sets out measurements from US8088749B2, “Compositions and methods for treating cancer” (The Regents of the University of Michigan, priority 2007, dated 2012).

The subject of series [1] is ATDC. As to the kind of experiment: ATDC localization after nuclear export inhibition, Panc-1 cells. In kind it is cell-based, human. To be noted: 1 ng/ml, 6 hours. The method, then:
In previous reports, ATDC was described as being predominately cytoplasmic in several cell types (see, e.g., Reymond A, et al., Embo J 2001; 20, 2140-2151; Brzoska P M, et al., Proc. Natl. Acad. Sci. USA 1995; 92, 7824-7828), conflicting with its potential role in the DNA damage response/DNA repair. In localization studies, it was determined that both endogenous ATDC and GFP-tagged ATDC had predominantly cytoplasmic localization, with some staining in the nucleus. To better understand how a protein with predominately cytoplasmic localization might be involved in the DNA response, wild type Panc-1 cells was treated with the nuclear export inhibitor leptomycin B (1 ng/ml) for 6 hours.

Series [2] relates to ATDC. As to the kind of experiment: Western blot analysis of ATDC after miRNA mimic transfection, BXPC-3 cells. It counts as cell-based, human. To be noted: 36 h after transfection with miRNA mimics. As for the experimental part:
(§1) FIGS. 31A and B are L3.6PL cells, and FIGS. 31 C and D are BXPC3 cells. The lanes in these figures is as follows: 1(a). Lipofectamine2000 only; 2(b). Control miRNA; 3. miR-299-5p; 4. miR-185; 5. miR-522; 6. miR-506; 7. miR-765; 8. miR-362; 9. miR-515-5p; 10. miR-661; 11. miR-525; c. miR-34a; d. miR-34b; e. miR-34c; f. miR-150; g. miR-296; h. miR-500; and i. miR-650.
(§2) For testing the miRNAs for ATDC, Western blot analysis of pancreatic cancer cells transfected was carried out with the miRNAs by Lipofactamine2000. […] They are miR-34a, miR-34c, miR-296, miR-650, miR-299-5p, miR-185, miR-765, miR-522, and miR-362.
On the technique in general: Immunoblotting shows a protein as a band on a membrane.

For series [3], the system named is ATDC. As to the kind of experiment: ATDC gene expression in gastric cancer KATO III cells. In kind it is cell-based. To be noted: human gastric cancer KATO III cells. The method, then: Next, the miRNAs regulation of ATDC by qRT-PCR was examined. 24 hours after miRNA mimic transfection of the cancer cells (100 pmol per well in 6-well plates), ATDC mRNA levels were measured by qRT-PCR with TaqMan SYBR Green PCR System (Applied Biosystems). Briefly, total RNA was extracted from the transfected cells using TRIZOL (Invitrogen) according to the manufacturer's instructions. Reverse transcription was performed using a TaqMan Reverse Transcription Kit (Applied Biosystems). For qRT-PCR, 1 μl of gene primers with SYBR Green (Applied Biosystems) in 20 μl of reaction volume was applied. Primers for ATDC: Forward: 5′-[…]-3′ (SEQ ID NO:45), Reverse: 5′-[…]-3′ (SEQ ID NO:46).

Series [4] deals with ATDC. Put plainly: Western blot analysis of ATDC after miRNA mimic transfection, L3.6PL cells. In kind it is cell-based, human. Conditions: 36 h after transfection with miRNA mimics. As for the experimental part: as §1, §2
In series [5] the test system is Dvl-2. As to the kind of experiment: Western blot after Dvl-2 shRNA transfection, HEK 293 cells. In kind it is cell-based, human. To be noted: transient transfection. As for the experimental part: (§3) FIG. 26. The oncogenic effects of ATDC are mediated by Dvl-2. (A. B) The effects of Dvl-2 shRNA 1 or 2 on b-catenin expression is shown in representative Western blots of HEK 293 (A) and MiaPaCa2 cells […] with or without ATDC overexpression. (C, D) TCF reporter activity was assessed in Dvl-2 shRNA 1 or 2-transfected HEK 293 (C) or Mia PaCa2 cells (D) with (+) or without (−) ATDC overexpression. The results from 3 separate experiments, performed in triplicate (*p<0.05 vs empty vector-transfected cells). (E. F) MTS proliferation assays in Dvl-2 shRNA1 or 2-transfected HEK 293 (E) and MiaPaCa2 (F) cells with (+) or without (−) ATDC overexpression (n=3, *p<0.05 vs wild type cells). (G) TCF reporter activity was measured in HEK 293, SW480, DLD-1 and HCT-116 cells with vector (white bars) or ATDC (black bars) transfection using the β-catenin responsive TOPFLASH reporter and the mutant control FOPFLASH reporter. The mean of the TOP/FOP ratio, as compared with the activity, for three independent experiments, performed in triplicate. […] The experiments were repeated three times and the data is expressed as the mean±SE. […] 48 hours after transfection, cell growth rates were assessed. […]

For series [6], the system named is Dvl-2. Put plainly: Western blot after Dvl-2 shRNA transfection, MiaPaCa2 cells. In kind it is cell-based, human. Conditions: transient transfection. As for the experimental part: as §3

As to `CCC(=C/[C@H](C)C/C=C/C(C)=C/[C@@H](C)C(=O)[C@@H](C)[C@H](O)[C@@H](C)C/C(C)=C/C(=O)O)/C=C/[C@@H]1OC(=O)C=C[C@@H]1C` [leptomycin B], the ATDC localization entry in series [1] was “ATDC accumulation in the nucleus”; in series [1] (listed as leptomycin), “nuclear retention of ATDC”.

For the molecule “miR-34a: miRNA mimic (UUGUUGGUCGAUUCUGUGACGGU; listed as RNA, chemistry not given here; listed as Homo sapiens)”, the ATDC protein levels result in series [2] and in series [4] was “potently reduced” each time. In series [3], the ATDC gene expression entry was “potently down-regulated; also recorded: significantly inhibited”.

For the molecule “miR-34c: miRNA mimic (CGUUAGUCGAUUGAUGUGACGGA; listed as RNA, chemistry not given here; listed as Homo sapiens)”, the ATDC protein levels entry in series [2] and in series [4] was “potently reduced” throughout.

For “miR-185: miRNA mimic (CUUGACGGAAAGAGAGGU; listed as RNA, chemistry not given here; listed as Homo sapiens)”, the ATDC protein levels entry in series [2] and in series [4] was “potently reduced” throughout.

Take “miR-299-5p: miRNA mimic (UACAUACACCCUGCCAUUUGGU; listed as RNA, chemistry not given here; listed as Homo sapiens)”: the ATDC protein levels entry in series [2] and in series [4] was “potently reduced” in each case.

“miR-362: miRNA mimic (UGAGUGUGGAUCCAAGGUUCCUAA; listed as RNA, chemistry not given here; listed as Homo sapiens)”: the ATDC protein levels result in series [2] and in series [4] was “potently reduced” each time.

Regarding “miR-522: miRNA mimic (UUGUGAGAUUUCCCUUGGUAAAA; listed as RNA, chemistry not given here; listed as Homo sapiens)”, the ATDC protein levels result in series [2] and in series [4] was “potently reduced” each time.

As to “miR-650: miRNA mimic (CAGGACUCUCGCGACGGAGGA; listed as RNA, chemistry not given here; listed as Homo sapiens)”, the results for the ATDC protein levels entry in series [2] and in series [4] were “potently reduced” and “potently reduced; also recorded: less potent”, respectively.

As for “miR-765: miRNA mimic (GUAGUGGAAGGAAGAGGAGGU; listed as RNA, chemistry not given here; listed as Homo sapiens)”, the ATDC protein levels entry in series [2] is on record as “potently reduced”; in series [4], “potently reduced; also recorded: less potent”.

B1: Dvl-2 shRNA 2: shRNA to Dvl-2, sense and anti-sense SEQ ID NOs: 9 and 10 (OriGene) (nucleic acid, listed as Homo sapiens)
sense: CACCGGACCGCATGTGGCTCAAGATCACCATCCCGAAGGATGGTGATCTTGAGCCACATGCGGTCC
antisense: AAAAGGACCGCAGTGGCTCAAGATCACCATCCTTCGGGATGGTGATCTTGAGCCACATGCGGTCC
modifications: the letters are possibly those of the target site
B1: the “levels of Dvl-2” value in series [5] and in series [6] was “effective” throughout.

B2: Dvl-2 shRNA 1: shRNA to Dvl-2, sense and anti-sense SEQ ID NOs: 7 and 8 (OriGene) (nucleic acid, listed as Homo sapiens)
sense: CACCTGTAGCTGCCTTTGTTACTCTATTTATTTCGAAAAATAAATAGAGTAACAAAGGCAGCTACA
antisense: AAAATGTAGCTGCCTTTGTTACTCTATTTATTTATTCGAAATAAATAGAGTAACAAAGGCAGCTACA
modifications: the letters are possibly those of the target site
B2: the “levels of Dvl-2” value in series [5] and in series [6] was “effective” in each case.
